From patent US4442044A, “Process for preparing monoesters and diesters of N-alkyl substituted amino methyl phosphonic acid” (priority 1983, dated 1984)

How the values were obtained:
Experiment in all cases: post-emergent herbicidal activity, greenhouse
Type in all cases: in vivo
Settings in all cases: Table I
Lambsquarters = system: Lambsquarters
Excerpt: (§1) A good grade of top soil is placed in aluminum pans having holes in the bottom and compacted to a depth of 0.95 to 1.27 cm. from the top of the pan. A predetermined number of seeds of each of several dicotyledonous and monocotyledonous annual plant species and/or vegetative propagules for the perennial plant species were placed on the soil and pressed into the soil surface. The seeds and/or vegetative propagules are covered with soil and leveled. The pans are then placed on a sand bench in the greenhouse and watered from below as needed. After the plants reach the desired age (two to three weeks), each pan except for the control pans is removed individually to a spraying chamber and sprayed by means of an atomizer operating at a positive air pressure of approximately 1.46 kg/cm^2 absolute. The atomizer contains 6 ml. of a solution or suspension of the chemical. In that 6 ml., is an amount of a cyclohexanone emulsifying agent mixture to give a spray solution or suspension which contains about 0.4% by weight of the emulsifier. The spray solution or suspension contains a sufficient amount of the candidate chemical in order to give application rates corresponding to those set forth in the tables. The spray solution is prepared by taking an aliquot of a 1.0% by weight stock solution or suspension of the candidate chemical in an organic solvent such as acetone or tetrahydrofuran or in water. The emulsifying agent employed is a mixture comprising 35 weight percent butylamine dodecylbenzene sulfonate and 65 weight percent of a tall oil ethylene oxide condensate having about 11 moles of ethylene oxide per mole of tall oil. The pans are returned to the greenhouse and watered as before and the injury to the plants as compared to the control is observed at approximately two and four weeks as indicated in the tables under WAT and the results recorded. In some instances, the two-week observations are omitted.
(§2) The post-emergent herbicidal activity index used in Tables I and II is as follows: […]

Yellow Nutsedge = system: Yellow Nutsedge
Excerpt: as §1, §2

Downy Brome = system: Downy Brome
Excerpt: as §1, §2

Velvetleaf = system: Velvetleaf
Excerpt: as §1, §2

Smartweed = system: Smartweed
Excerpt: as §1, §2

Morningglory = system: Morningglory
Excerpt: as §1, §2

Johnsongrass = system: Johnsongrass
Excerpt: as §1, §2

Quackgrass = system: Quackgrass
Excerpt: as §1, §2

Barnyardgrass = system: Barnyardgrass
Excerpt: as §1, §2

Canada Thistle = system: Canada Thistle
Excerpt: as §1, §2

Cocklebur = system: Cocklebur
Excerpt: as §1, §2

Measured: post-emergent herbicidal activity index

N#CCCOP(=O)(CNCC#N)OCCC#N [Example 11, phosphonic acid, [[(cyanomethyl)amino]-methyl],bis 2-(cyanoethyl)ester]
0 (0-24% control): Yellow Nutsedge; 2 WAT, 5.6 kg/h | Downy Brome; 2 WAT, 5.6 kg/h | Downy Brome; 4 WAT, 11.2 kg/h | Velvetleaf; 2 WAT, 5.6 kg/h | Velvetleaf; 4 WAT, 11.2 kg/h | Smartweed; 2 WAT, 5.6 kg/h | Morningglory; 2 WAT, 5.6 kg/h | Johnsongrass; 2 WAT, 5.6 kg/h | Johnsongrass; 4 WAT, 11.2 kg/h | Quackgrass; 2 WAT, 5.6 kg/h | Barnyardgrass; 2 WAT, 5.6 kg/h | Canada Thistle; 2 WAT, 5.6 kg/h | Cocklebur; 2 WAT, 5.6 kg/h
2 (50-74% control): Morningglory; 4 WAT, 11.2 kg/h | Canada Thistle; 4 WAT, 11.2 kg/h
1 (25-49% control): Lambsquarters; 2 WAT, 5.6 kg/h | Lambsquarters; 4 WAT, 11.2 kg/h | Yellow Nutsedge; 4 WAT, 11.2 kg/h | Smartweed; 4 WAT, 11.2 kg/h | Quackgrass; 4 WAT, 11.2 kg/h | Barnyardgrass; 4 WAT, 11.2 kg/h | Cocklebur; 4 WAT, 11.2 kg/h

CCOC(=O)CNCP(=O)(OC(CC(=O)OCC)C(=O)OCC)OC(CC(=O)OCC)C(=O)OCC (centres unmarked) [Example 14, butanoic acid, 2,2'-[[[(2-ethoxy-2-oxo-ethyl)amino]methyl]phosphinylidene]bis(oxy)-bis-,tetraethyl ester]
0 (0-24% control): Lambsquarters; 2 WAT, 5.6 kg/h | Lambsquarters; 2 WAT, 11.2 kg/h | Yellow Nutsedge; 2 WAT, 5.6 kg/h | Yellow Nutsedge; 2 WAT, 11.2 kg/h | Downy Brome; 2 WAT, 5.6 kg/h | Downy Brome; 2 WAT, 11.2 kg/h | Velvetleaf; 2 WAT, 5.6 kg/h | Velvetleaf; 2 WAT, 11.2 kg/h | Smartweed; 2 WAT, 5.6 kg/h | Smartweed; 2 WAT, 11.2 kg/h | Morningglory; 2 WAT, 5.6 kg/h | Morningglory; 2 WAT, 11.2 kg/h | Johnsongrass; 2 WAT, 5.6 kg/h | Johnsongrass; 2 WAT, 11.2 kg/h | Quackgrass; 2 WAT, 5.6 kg/h | Quackgrass; 2 WAT, 11.2 kg/h | Barnyardgrass; 2 WAT, 5.6 kg/h | Barnyardgrass; 2 WAT, 11.2 kg/h | Canada Thistle; 2 WAT, 5.6 kg/h | Canada Thistle; 2 WAT, 11.2 kg/h | Cocklebur; 2 WAT, 5.6 kg/h | Cocklebur; 2 WAT, 11.2 kg/h
3 (75-99% control): Downy Brome; 2 WAT, 56.0 kg/h | Velvetleaf; 4 WAT, 56.0 kg/h | Smartweed; 4 WAT, 56.0 kg/h | Morningglory; 2 WAT, 56.0 kg/h | Johnsongrass; 2 WAT, 56.0 kg/h | Johnsongrass; 4 WAT, 56.0 kg/h | Quackgrass; 4 WAT, 56.0 kg/h | Barnyardgrass; 4 WAT, 56.0 kg/h
1 (25-49% control): Yellow Nutsedge; 4 WAT, 56.0 kg/h | Canada Thistle; 4 WAT, 56.0 kg/h
4 (100% control): Lambsquarters; 2 WAT, 56.0 kg/h | Lambsquarters; 4 WAT, 56.0 kg/h | Yellow Nutsedge; 2 WAT, 56.0 kg/h | Velvetleaf; 2 WAT, 56.0 kg/h | Smartweed; 2 WAT, 56.0 kg/h | Quackgrass; 2 WAT, 56.0 kg/h | Barnyardgrass; 2 WAT, 56.0 kg/h | Canada Thistle; 2 WAT, 56.0 kg/h | Cocklebur; 2 WAT, 56.0 kg/h | Cocklebur; 4 WAT, 56.0 kg/h
2 (50-74% control): Downy Brome; 4 WAT, 56.0 kg/h | Morningglory; 4 WAT, 56.0 kg/h

CCOC(=O)CNCP(=O)(OC(C)C(=O)OCC)OC(C)C(=O)OCC (centres unmarked) [Example 16, propanoic acid, 2,2'-[[[[(2-ethoxy-2-oxoethyl)amino]methyl]phosphinylidene]bis(oxy)]-bis-,diethyl ester]
1 (25-49% control): Yellow Nutsedge; 4 WAT, 5.6 kg/h | Yellow Nutsedge; 4 WAT, 11.2 kg/h | Downy Brome; 4 WAT, 11.2 kg/h | Morningglory; 4 WAT, 5.6 kg/h | Morningglory; 4 WAT, 11.2 kg/h | Barnyardgrass; 4 WAT, 5.6 kg/h | Barnyardgrass; 4 WAT, 11.2 kg/h | Cocklebur; 4 WAT, 11.2 kg/h
0 (0-24% control): Lambsquarters; 4 WAT, 5.6 kg/h | Lambsquarters; 4 WAT, 11.2 kg/h | Downy Brome; 4 WAT, 5.6 kg/h | Velvetleaf; 4 WAT, 5.6 kg/h | Velvetleaf; 4 WAT, 11.2 kg/h | Smartweed; 4 WAT, 5.6 kg/h | Smartweed; 4 WAT, 11.2 kg/h | Johnsongrass; 4 WAT, 5.6 kg/h | Johnsongrass; 4 WAT, 11.2 kg/h | Quackgrass; 4 WAT, 5.6 kg/h | Quackgrass; 4 WAT, 11.2 kg/h | Canada Thistle; 4 WAT, 5.6 kg/h | Canada Thistle; 4 WAT, 11.2 kg/h | Cocklebur; 4 WAT, 5.6 kg/h

CCOC(=O)CNCP(=O)(OCCCl)OCCCl [Example 17, glycine, N-[[bis(2-chloroethoxy)phosphinyl]methyl]-, ethyl ester]
0 (0-24% control): Lambsquarters; 2 WAT, 5.6 kg/h | Yellow Nutsedge; 2 WAT, 5.6 kg/h | Yellow Nutsedge; 4 WAT, 11.2 kg/h | Downy Brome; 2 WAT, 5.6 kg/h | Downy Brome; 4 WAT, 11.2 kg/h | Velvetleaf; 2 WAT, 5.6 kg/h | Smartweed; 2 WAT, 5.6 kg/h | Morningglory; 2 WAT, 5.6 kg/h | Johnsongrass; 2 WAT, 5.6 kg/h | Johnsongrass; 4 WAT, 11.2 kg/h | Quackgrass; 2 WAT, 5.6 kg/h | Quackgrass; 4 WAT, 11.2 kg/h | Barnyardgrass; 2 WAT, 5.6 kg/h | Canada Thistle; 2 WAT, 5.6 kg/h | Canada Thistle; 4 WAT, 11.2 kg/h | Cocklebur; 2 WAT, 5.6 kg/h | Cocklebur; 4 WAT, 11.2 kg/h
1 (25-49% control): Lambsquarters; 4 WAT, 11.2 kg/h | Velvetleaf; 4 WAT, 11.2 kg/h | Smartweed; 4 WAT, 11.2 kg/h | Morningglory; 4 WAT, 11.2 kg/h | Barnyardgrass; 4 WAT, 11.2 kg/h
